Laboratory results as given in patent US20050112573A1, “Method of detecting toxic substance” (priority 2001, published 2005).

Tested on: yeast genes (level of expressed mRNA)
Assay: DNA chip analysis of expressed mRNA of yeast genes after 2 h culture with a toxic chemical substance
Assay type: cell-based, Saccharomyces cerevisiae S288C
Conditions: for The level of expressed mRNA in the presence of chemical substance/ (ratio to absence of chemical substance): stress protein genes, DNA chip; for The level of expressed mRNA in the presence of chemical substance/ in its absence, gene YPR184W: yeast gene YPR184W
Procedure: Yeast (Saccharomyces cerevtisiae S288C (α SUC2mal mel gap2 CUP1)) were cultured at 25° C. on YPD medium (yeast extract 1%, polypepton 2%, glucose 2%). One of toxic chemical substances was added to the cell at logarithmic growth phase, and the cell was further cultured for two hours. Cell was cultured without any chemical substance in the same condition, and was used as control. Concentrations of the chemical substances were defined to inhibit the growth of the yeast but not lead to death.
After the completion of cultivation, the culture was centrifuged to collect the cells. To the cells, sodium acetate buffer (50 mM sodium acetate, 10 mM EDTA, 1% SDS) was added, and the mixture was shaken at 65° C. for five minutes, followed by returning to room temperature, and obtaining the supernatant, which procedure was repeated two times. To the supernatant, ½ amount of a solution of phenol/chloroform was added, and the mixture was centrifuged to give a supernatant, which was added with an equal amount of chloroform, and the mixture was centrifuged to give a supernatant. To the supernatant, an equal amount of isopropanol containing 0.3 M sodium acetate was added, and the mixture was allowed to stand at room temperature for 30 minutes, after which the mixture was centrifuged to give a sediment of the whole RNAs. Seventy % ethanol was added to the sediment, and the mixture was again centrifuged to give a sediment, which was then dried and dissolved in water. mRNA was isolated from the whole RNAs as followings. In view of the fact that a poly A chain is attached to the 3′ terminus of mRNA, a polynucleotide having a poly T structure which was immobilized on the surface of latex beads was used to trap the mRNA, and then the mRNA was washed and eluted with spine column (Oligotex-dT30<Super>mRNA Purification Kit, Takara). Reverse transcription of the mRNA was conducted with a reverse transcriptase (Super Script II Reverse Transcriptase; catalogue No. 18064-014, GibcoBRL) using fluorescence-labeled nucleotides to give cDNAs that were introduced with Cy3-dUTP or Cy5-dUTP during the reverse transcription.
The labeled cDNAs were dissolved in TE buffer (10 mM Tris-HCl/1 mM EDTA, pH8.0), and the solution was dropped on the DNA chip containing the whole genes of yeast (DNA Chip Research Inc. Japan) so that the cDNAs were hybridized on the DNA chip at 65° C. for over 12 hours. The fluoresces intensity of the DNA chip was read with a scanner, and the ratio relative to the fluorescence intensity resulting from the absence of chemical substance was estimated as the following, which is shown in Tables 1 to 9: [formula]
In the Tables, “Intensity” indicated in the rightmost column is a value of the level of expressed mRNA of each gene in control cells as divided by the average level of the expressions of the whole genes.

COc1cc(CNC(=O)CCCCC=CC(C)C)ccc1O [(12), 8-methyl-N-vanillyl-6-nonenamide]
The level of expressed mRNA in the presence of chemical substance/The level of expressed mRNA in the absence of chemical substance (yeast gene YMR314W): 1.0 | The level of expressed mRNA in the presence of chemical substance/The level of expressed mRNA in the absence of chemical substance (yeast gene YNL006W): 0.7 | The level of expressed mRNA in the presence of chemical substance/The level of expressed mRNA in the absence of chemical substance (yeast gene YNL007C): 0.7 | The level of expressed mRNA in the presence of chemical substance/ (in its absence), gene YNL025C (yeast gene YNL025C, ratio of DNA chip fluorescence intensity to that without chemical substance): 0.8 | The level of expressed mRNA in the presence of chemical substance/ (ratio to absence of chemical substance) (yeast gene YNL064C): 0.8 | The level of expressed mRNA in the presence of chemical substance/ (ratio to absence), gene YNL073W (yeast gene YNL073W, mitochondria-located protein genes, 2 h culture with chemical): 0.7 | The level of expressed mRNA in the presence of chemical substance/The level of expressed mRNA in the absence of chemical substance (yeast gene YNL093W): 1.1 | The level of expressed mRNA in the presence of chemical substance/ (in its absence), gene YNL192W (yeast gene YNL192W, ratio of DNA chip fluorescence intensity to that without chemical substance): 1.1 | The level of expressed mRNA in the presence of chemical substance/The level of expressed mRNA in the absence of chemical substance (yeast gene YNL333W): 1.0 | The level of expressed mRNA in the presence of chemical substance/The level of expressed mRNA in the absence of chemical substance (yeast gene YNR010W): 0.8 | The level of expressed mRNA in the presence of chemical substance/The level of expressed mRNA in the absence of chemical substance (yeast gene YNR069C): 1.2 | The level of expressed mRNA in the presence of chemical substance/ (in its absence), gene YNR072W (yeast gene YNR072W, ratio of DNA chip fluorescence intensity to that without chemical substance): 1.0 | The level of expressed mRNA in the presence of chemical substance/ (ratio to absence of chemical substance) (yeast gene YNR076W): 0.7 | The level of expressed mRNA in the presence of chemical substance/The level of expressed mRNA in the absence of chemical substance (yeast gene YOL013C): 1.1 | The level of expressed mRNA in the presence of chemical substance/ (ratio to absence), gene YOL096C (yeast gene YOL096C, mitochondria-located protein genes, 2 h culture with chemical): 1.2 | The level of expressed mRNA in the presence of chemical substance/ (in its absence), gene YOL096C (yeast gene YOL096C, ratio of DNA chip fluorescence intensity to that without chemical substance): 1.2 | The level of expressed mRNA in the presence of chemical substance/ (in its absence), gene YOL108C (yeast gene YOL108C, ratio of DNA chip fluorescence intensity to that without chemical substance): 1.0 | The level of expressed mRNA in the presence of chemical substance/ (in its absence), gene YOL116W (yeast gene YOL116W, ratio of DNA chip fluorescence intensity to that without chemical substance): 0.6 | The level of expressed mRNA in the presence of chemical substance/ (ratio to absence of chemical substance) (yeast gene YOL161C): 1.3 | The level of expressed mRNA in the presence of chemical substance/The level of expressed mRNA in the absence of chemical substance (yeast gene YOL164W): 1.1 | The level of expressed mRNA in the presence of chemical substance/ (ratio to absence of chemical substance) (yeast gene YOR008C): 0.7 | The level of expressed mRNA in the presence of chemical substance/ (ratio to absence of chemical substance) (yeast gene YOR009W): 0.4 | The level of expressed mRNA in the presence of chemical substance/ (ratio to absence of chemical substance) (yeast gene YOR010C): 0.5 | The level of expressed mRNA in the presence of chemical substance/The level of expressed mRNA in the absence of chemical substance (yeast gene YOR036W): 1.2 | The level of expressed mRNA in the presence of chemical substance/ (in its absence), gene YOR103C (yeast gene YOR103C, ratio of DNA chip fluorescence intensity to that without chemical substance): 1.2 | The level of expressed mRNA in the presence of chemical substance/The level of expressed mRNA in the absence of chemical substance (yeast gene YOR117W): 2.5 | The level of expressed mRNA in the presence of chemical substance/The level of expressed mRNA in the absence of chemical substance (yeast gene YOR124C): 0.9 | The level of expressed mRNA in the presence of chemical substance/The level of expressed mRNA in the absence of chemical substance (yeast gene YOR132W): 0.7 | The level of expressed mRNA in the presence of chemical substance/The level of expressed mRNA in the absence of chemical substance (yeast gene YOR157C): 1.3 | The level of expressed mRNA in the presence of chemical substance/ (in its absence), gene YOR180C (yeast gene YOR180C, ratio of DNA chip fluorescence intensity to that without chemical substance): 0.8 | The level of expressed mRNA in the presence of chemical substance/The level of expressed mRNA in the absence of chemical substance (yeast gene YOR181W): 0.8 | The level of expressed mRNA in the presence of chemical substance/The level of expressed mRNA in the absence of chemical substance (yeast gene YOR185C): 1.5 | The level of expressed mRNA in the presence of chemical substance/The level of expressed mRNA in the absence of chemical substance (yeast gene YOR198C): 1.5 | The level of expressed mRNA in the presence of chemical substance/ (in its absence), gene YOR251C (yeast gene YOR251C, ratio of DNA chip fluorescence intensity to that without chemical substance): 0.9 | The level of expressed mRNA in the presence of chemical substance/The level of expressed mRNA in the absence of chemical substance (yeast gene YOR259C): 0.8 | The level of expressed mRNA in the presence of chemical substance/The level of expressed mRNA in the absence of chemical substance (yeast gene YOR261C): 0.9 | The level of expressed mRNA in the presence of chemical substance/The level of expressed mRNA in the absence of chemical substance (yeast gene YOR288C): 1.4 | The level of expressed mRNA in the presence of chemical substance/ (ratio to absence), gene YOR316C (yeast gene YOR316C, mitochondria-located protein genes, 2 h culture with chemical): 1.1 | The level of expressed mRNA in the presence of chemical substance/ (in its absence), gene YOR348C (yeast gene YOR348C, ratio of DNA chip fluorescence intensity to that without chemical substance): 0.7 | The level of expressed mRNA in the presence of chemical substance/The level of expressed mRNA in the absence of chemical substance (yeast gene YOR355W): 0.9 | The level of expressed mRNA in the presence of chemical substance/ (in its absence), gene YOR363C (yeast gene YOR363C, ratio of DNA chip fluorescence intensity to that without chemical substance): 0.9 | The level of expressed mRNA in the presence of chemical substance/The level of expressed mRNA in the absence of chemical substance (yeast gene YOR383C): 1.1 | The level of expressed mRNA in the presence of chemical substance/ (ratio to absence), gene YPL040C (yeast gene YPL040C, mitochondria-located protein genes, 2 h culture with chemical): 0.9 | The level of expressed mRNA in the presence of chemical substance/ (ratio to absence of chemical substance) (yeast gene YPL059W): 0.8 | The level of expressed mRNA in the presence of chemical substance/The level of expressed mRNA in the absence of chemical substance (yeast gene YPL089C): 0.7 | The level of expressed mRNA in the presence of chemical substance/The level of expressed mRNA in the absence of chemical substance (yeast gene YPL109C): 0.9 | The level of expressed mRNA in the presence of chemical substance/ (ratio to absence), gene YPL134C (yeast gene YPL134C, mitochondria-located protein genes, 2 h culture with chemical): 0.8 | The level of expressed mRNA in the presence of chemical substance/ (ratio to absence of chemical substance) (yeast gene YPL140C): 0.8 | The level of expressed mRNA in the presence of chemical substance/ (in its absence), gene YPL148C (yeast gene YPL148C, ratio of DNA chip fluorescence intensity to that without chemical substance): 0.7 | The level of expressed mRNA in the presence of chemical substance/The level of expressed mRNA in the absence of chemical substance (yeast gene YPL149W): 0.9 | The level of expressed mRNA in the presence of chemical substance/The level of expressed mRNA in the absence of chemical substance (yeast gene YPL154C): 1.5 | The level of expressed mRNA in the presence of chemical substance/ (ratio to absence of chemical substance) (yeast gene YPL194W): 0.9 | The level of expressed mRNA in the presence of chemical substance/ (ratio to absence of chemical substance) (yeast gene YPR005C): 0.6 | The level of expressed mRNA in the presence of chemical substance/The level of expressed mRNA in the absence of chemical substance (yeast gene YPR103W): 1.2 | The level of expressed mRNA in the presence of chemical substance/The level of expressed mRNA in the absence of chemical substance (yeast gene YPR108W): 1.0 | The level of expressed mRNA in the presence of chemical substance/ (in its absence), gene YPR165W (yeast gene YPR165W, ratio of DNA chip fluorescence intensity to that without chemical substance): 0.8 | The level of expressed mRNA in the presence of chemical substance/ in its absence, gene YPR184W (energy system protein genes, 2 h culture with the chemical, ratio to control without chemical): 1.4 | The level of expressed mRNA in the presence of chemical substance/ in its absence, gene YPR184W (ratio of DNA chip fluorescence intensity to that without chemical substance): 1.4
